According to US12234237B2, “Folate salts” (priority 2018, dated 2025):

Test: Solubility of the folate salt in organic (apolar) solvents at 20° C.
Settings: based on total weight of the solution
Description: Solubility has been determined at 20° C. Apolar solvents or mixtures thereof are for instance glycerol, methanol, ethanol, 1-propanol, 2-propanol and dimethylsulfoxid (DMSO). Apolar solvents are understood as dry solvents, that is without any water content. Apolar solvents may be pure solvents, comprising only one type of apolar solvent or it may be a mixture of at least two of the aforementioned apolar solvents. Polarity is in comparison to the polarity of water.
A high degree of crystallinity means that the crystalline content of the folate salt is higher than 40% based on the total amount of the folate salt.

SMILES | Solubility in 1-Propanol [% w/w] | Solubility in DMSO [% w/w] | Solubility in Ethanol [% w/w] | Solubility in Glycerol [% w/w] | Solubility in Methanol [% w/w]
CC(C)(N)CO.CC(C)(N)CO.CN1c2c(nc(N)[nH]c2=O)NC[C@@H]1CNc1ccc(C(=O)N[C@@H](CCC(=O)O)C(=O)O)cc1 [L-MTHF di AMP, 5-Methyl-(6S)-tetrahydrofolic acid di 2-Amino-2-methyl propanol salt] | 0.1 | 23.1 | 0.1 | 16.7 | 11.2
CN1c2c(nc(N)[nH]c2=O)NC[C@@H]1CNc1ccc(C(=O)N[C@@H](CCC(=O)O)C(=O)O)cc1.CNCCO.CNCCO [L-MTHF di NMAE, 5-Methyl-(6S)-tetrahydrofolic acid di N-methylaminoethanol salt] | 0.1 | 3.5 | 0.2 | 16.7 | 3.6
CN(C)CCO.CN1c2c(nc(N)[nH]c2=O)NC[C@@H]1CNc1ccc(C(=O)N[C@@H](CCC(=O)O)C(=O)O)cc1 [L-MTHF mono deanol, 5-Methyl-(6S)-tetrahydrofolic Acid Mono 2-Dimethylaminoethanol Salt] | 0.2 | 24.8 | 0.2 | 10.0 | 2.5
